Like-named read-outs stand apart in the source and are kept apart here.
Tested on: HBsAg secretion in HepG2.2.15 cells
Test: HBsAg assay (chemiluminescence immunoassay of secreted HBsAg in culture supernatant)
Type: cell-based, HBV
Conditions: concentration at which HBsAg secretion was reduced by 50% compared to the no drug control, read-out: IC50 (HBsAg assay)
Method in brief: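 IC50 taken from dose-response curves as the concentration halving secreted HBsAg relative to DMSO control. Measured by chemiluminescence immunoassay of culture supernatant from constitutively HBV-expressing HepG2.2.15 cells, seeded at 1.5×10^4/well in duplicate and exposed to three-fold serial compound dilutions at 1% final DMSO.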

[1] = Hepatitis B virus, HepG2.2.15, HepG2.2.15 cells

## CC1c2cnc(-c3ncccn3)nc2CCN1c1cc(F)c(F)c(OCC(F)F)c1 (centres unmarked) [Example 70, 6-[3-(2,2-difluoroethoxy)-4,5-difluoro-phenyl]-5-methyl-2-pyrimidin-2-yl-7,8-dihydro-5H-pyrido[4,3-d]pyrimidine]
[1]
  IC50: 26 nM

## CC1c2cnc(-c3ncccn3)nc2CCN1c1cc(F)c(F)c(OC(F)F)c1 (centres unmarked) [Example 71, 6-[3-(difluoromethoxy)-4,5-difluoro-phenyl]-5-methyl-2-pyrimidin-2-yl-7,8-dihydro-5H-pyrido[4,3-d]pyrimidine]
[1]
  IC50: 68 nM

## CC1c2cnc(-c3ncccn3)nc2CCN1c1cc(N2CCOCC2)cc(F)n1 (centres unmarked) [Example 202, 4-[2-fluoro-6-(5-methyl-2-pyrimidin-2-yl-7,8-dihydro-5H-pyrido[4,3-d]pyrimidin-6-yl)-4-pyridyl]morpholine]
[1]
  IC50: 13 nM

## CC1c2cnc(-c3ccccn3)nc2CCN1c1cc(OCCCCCC(N)=O)cc(F)n1 (centres unmarked) [Example 171, 6-[[2-fluoro-6-[5-methyl-2-(2-pyridyl)-7,8-dihydro-5H-pyrido[4,3-d]pyrimidin-6-yl]-4-pyridyl]oxy]hexanamide]
[1]
  IC50: 18 nM

## COc1cc(N2CCc3nc(-c4ncccn4)ncc3C2C)c(Cl)c(F)c1Cl (single isomer, unassigned; (+)) [Example 125, (+)-6-(2,4-dichloro-3-fluoro-5-methoxy-phenyl)-5-methyl-2-pyrimidin-2-yl-7,8-dihydro-5H-pyrido[4,3-d]pyrimidine]
[1]
  IC50: 1120 nM

## CC1c2cnc(-c3ncccn3)nc2CCN1c1cc(OCCCOCC(=O)O)cc(F)n1 (centres unmarked) [Example 162, 2-[3-[[2-fluoro-6-(5-methyl-2-pyrimidin-2-yl-7,8-dihydro-5H-pyrido[4,3-d]pyrimidin-6-yl)-4-pyridyl]oxy]propoxy]acetic acid]
[1]
  IC50: 1780 nM

## CC1c2cnc(-c3ncccn3)nc2CCN1c1cc(F)c(F)c(OCC2CCCO2)c1 (centres unmarked) [Example 122, 6-[3,4-difluoro-5-(tetrahydrofuran-2-ylmethoxy)phenyl]-(5R/S)-methyl-2-pyrimidin-2-yl-7,8-dihydro-5H-pyrido[4,3-d]pyrimidine]
HepG2.2.15 cells
  IC50: 16 nM

## COCCCN(C)C(=O)c1cc(F)cc(N2CCc3nc(-c4ncccn4)ncc3C2C)c1 (centres unmarked) [Example 178, 3-fluoro-N-(3-methoxypropyl)-N-methyl-5-(5-methyl-2-pyrimidin-2-yl-7,8-dihydro-5H-pyrido[4,3-d]pyrimidin-6-yl)benzamide]
[1]
  IC50: 123 nM

## CC1c2cnc(-c3ncccn3)nc2CCN1c1cc(F)c(F)c(OCCC(NC(=O)OC(C)(C)C)C(=O)O)c1 (centres unmarked) [Example 103, 2-(tert-butoxycarbonylamino)-4-[2,3-difluoro-5-(5-methyl-2-pyrimidin-2-yl-7,8-dihydro-5H-pyrido[4,3-d]pyrimidin-6-yl)phenoxy]butanoic acid]
[1]
  IC50: 2160 nM

## CC1c2cnc(-c3ncccn3)nc2CCN1c1cc(F)cc(N(C)C)n1 (centres unmarked) [Example 197, 4-fluoro-N,N-dimethyl-6-(5-methyl-2-pyrimidin-2-yl-7,8-dihydro-5H-pyrido[4,3-d]pyrimidin-6-yl)pyridin-2-amine]
HepG2.2.15 cells
  IC50: 6 nM

## COCCOc1cc(N2CCc3nc(-c4ccccn4)ncc3C2C)cc(F)c1F (single isomer, unassigned; (-)) [Example 21, (−)-6-[3,4-difluoro-5-(2-methoxyethoxy)phenyl]-5-methyl-2-(2-pyridyl)-7,8-dihydro-5H-pyrido[4,3-d]pyrimidine]
HepG2.2.15 cells
  IC50: 50 nM

## CC1c2cnc(-c3ncccn3)nc2CCN1c1cc(F)c(F)c(OCC2CC2)c1 (centres unmarked) [Example 88, 6-[3-(cyclopropylmethoxy)-4,5-difluoro-phenyl]-5-methyl-2-pyrimidin-2-yl-7,8-dihydro-5H-pyrido[4,3-d]pyrimidine]
[1]
  IC50: 27 nM

## CC1c2cnc(-c3ncccn3)nc2CCN1c1cc(OCCCCCCC(N)=O)cc(F)n1 (single isomer, unassigned; (-)) [Example 156, (−)-7-[[2-fluoro-6-[5-methyl-2-pyrimidin-2-yl-7,8-dihydro-5H-pyrido[4,3-d]pyrimidin-6-yl]-4-pyridyl]oxy]heptanamide]
[1]
  IC50: 6 nM

## COc1cc(N2CCc3cc(-c4ncccn4)ncc3C2C)cc(F)c1-c1ccncc1 (centres unmarked) [Example 136, 2-[3-fluoro-5-methoxy-4-(4-pyridyl)phenyl]-1-methyl-6-pyrimidin-2-yl-3,4-dihydro-1H-2,7-naphthyridine]
[1]
  IC50: 357 nM

## CCC1c2cnc(-c3ccccn3)nc2CCN1c1ccc(S(C)(=O)=O)cc1 (centres unmarked) [Example 4, 5-ethyl-6-(4-methylsulfonylphenyl)-2-(2-pyridyl)-7,8-dihydro-5H-pyrido[4,3-d]pyrimidine]
[1]
  IC50: 1920 nM

## CC(=O)NCCCOc1cc(N2CCc3nc(-c4ncccn4)ncc3C2C)cc(F)c1F (centres unmarked) [Example 92, N-[3-[2,3-difluoro-5-(5-methyl-2-pyrimidin-2-yl-7,8-dihydro-5H-pyrido[4,3-d]pyrimidin-6-yl)phenoxy]propyl]acetamide]
[1]
  IC50: 54 nM

## CC1c2cnc(-c3ncccn3)nc2CCN1c1cc(F)c(F)c(OCC2CS(=O)(=O)C2)c1 (centres unmarked) [Example 120, 3-[[2,3-difluoro-5-(5-methyl-2-pyrimidin-2-yl-7,8-dihydro-5H-pyrido[4,3-d]pyrimidin-6-yl)phenoxy]methyl]thietane 1,1-dioxide]
[1]
  IC50: 96 nM

## CC1c2cnc(-c3ncccn3)nc2CCN1c1cc(F)c(F)c(OCCC(=O)O)c1 (centres unmarked) [Example 51, 3-[2,3-difluoro-5-(5-methyl-2-pyrimidin-2-yl-7,8-dihydro-5H-pyrido[4,3-d]pyrimidin-6-yl)phenoxy]propanoic acid]
[1]
  IC50: 2670 nM

## CC1c2cnc(-c3ncccn3)nc2CCN1c1cc(OCCCOCC(N)=O)cc(F)n1 (centres unmarked) [Example 163, 2-[3-[[2-fluoro-6-(5-methyl-2-pyrimidin-2-yl-7,8-dihydro-5H-pyrido[4,3-d]pyrimidin-6-yl)-4-pyridyl]oxy]propoxy]acetamide]
[1]
  IC50: 35 nM

## COCCOc1cc(N2CCc3nc(-c4ccccn4)ncc3C2C)cc(F)c1F (single isomer, unassigned; (+)) [Example 20, (+)-6-[3,4-difluoro-5-(2-methoxyethoxy)phenyl]-5-methyl-2-(2-pyridyl)-7,8-dihydro-5H-pyrido[4,3-d]pyrimidine]
HepG2.2.15 cells
  IC50: 5010 nM

## COc1cc(C)nc(N2CCc3nc(-c4ncccn4)ncc3C2C)c1 (centres unmarked) [Example 161, 6-(4-methoxy-6-methyl-2-pyridyl)-5-methyl-2-pyrimidin-2-yl-7,8-dihydro-5H-pyrido[4,3-d]pyrimidine]
[1]
  IC50: 95 nM

## CC1c2cnc(-c3ncccn3)nc2CCN1c1cc(F)cc(N(C)C)n1 (single isomer, unassigned; (+)) [Example 204, (+)-4-fluoro-N,N-dimethyl-6-[5-methyl-2-pyrimidin-2-yl-7,8-dihydro-5H-pyrido[4,3-d]pyrimidin-6-yl]pyridin-2-amine]
HepG2.2.15 cells
  IC50: 113 nM

## CCOC(=O)CCCCCCOc1cc(N2CCc3nc(-c4ncccn4)ncc3C2C)cc(F)c1F (centres unmarked) [Example 85, ethyl 7-[2,3-difluoro-5-(5-methyl-2-pyrimidin-2-yl-7,8-dihydro-5H-pyrido[4,3-d]pyrimidin-6-yl)phenoxy]heptanoate]
[1]
  IC50: 156 nM

## CC1c2cnc(-c3ccccn3)nc2CCN1c1cc(OCC(F)F)cc(F)n1 (centres unmarked) [Example 192, 6-[4-(2,2-difluoroethoxy)-6-fluoro-2-pyridyl]-5-methyl-2-(2-pyridyl)-7,8-dihydro-5H-pyrido[4,3-d]pyrimidine]
[1]
  IC50: 30 nM

## CC1c2cnc(-c3ccccn3)nc2CCN1c1cc(F)c(F)c(OCC(N)=O)c1 (centres unmarked) [Example 29, 2-[2,3-difluoro-5-[5-methyl-2-(2-pyridyl)-7,8-dihydro-5H-pyrido[4,3-d]pyrimidin-6-yl]phenoxy]acetamide]
[1]
  IC50: 50 nM

## CC1c2cnc(-c3ccccn3)nc2CCN1c1cc(F)c(F)c(OCC(=O)N(C)C)c1 (centres unmarked) [Example 30, 2-[2,3-difluoro-5-[5-methyl-2-(2-pyridyl)-7,8-dihydro-5H-pyrido[4,3-d]pyrimidin-6-yl]phenoxy]-N,N-dimethyl-acetamide]
[1]
  IC50: 96 nM

## COc1cc(N2CCc3nc(-c4ccccn4)ncc3C2CCO)cc(F)c1F (centres unmarked) [Example 38, 2-[6-(3,4-difluoro-5-methoxy-phenyl)-2-(2-pyridyl)-7,8-dihydro-5H-pyrido[4,3-d]pyrimidin-5-yl]ethanol]
[1]
  IC50: 3360 nM

## CC1c2cnc(-c3ncccn3)nc2CCN1c1cc(F)c(F)c(OCC2COC2)c1 (centres unmarked) [Example 76, 6-[3,4-difluoro-5-(oxetan-3-ylmethoxy)phenyl]-5-methyl-2-pyrimidin-2-yl-7,8-dihydro-5H-pyrido[4,3-d]pyrimidine]
[1]
  IC50: 28 nM

## CC1c2cnc(-c3ccccn3)nc2CCN1c1cc(OCCCCCCC(N)=O)cc(F)n1 (centres unmarked) [Example 180, 7-[[2-fluoro-6-[5-methyl-2-(2-pyridyl)-7,8-dihydro-5H-pyrido[4,3-d]pyrimidin-6-yl]-4-pyridyl]oxy]heptanamide]
[1]
  IC50: 27 nM

## CC1c2cnc(-c3ncccn3)nc2CCN1c1cc(N(C)C)cc(F)n1 (single isomer, unassigned; (+)) [Example 206, (+)-2-fluoro-N,N-dimethyl-6-[5-methyl-2-pyrimidin-2-yl-7,8-dihydro-5H-pyrido[4,3-d]pyrimidin-6-yl]pyridin-4-amine]
HepG2.2.15 cells
  IC50: 285 nM

## CCC1c2cnc(-c3ccccn3)nc2CCN1c1cc(F)c(F)c(OC)c1 (single isomer, unassigned; (-)) [Example 11, (−)-6-(3,4-difluoro-5-methoxy-phenyl)-5-ethyl-2-(2-pyridyl)-7,8-dihydro-5H-pyrido[4,3-d]pyrimidine]
HepG2.2.15 cells
  IC50: 85 nM

## CC1c2cnc(-c3ccccn3)nc2CCN1c1ccc([N+](=O)[O-])cc1 (single isomer, unassigned; (+)) [Example 2, (+)-5-methyl-6-(4-nitrophenyl)-2-(2-pyridyl)-7,8-dihydro-5H-pyrido[4,3-d]pyrimidine]
HepG2.2.15 cells
  IC50: 2060 nM

— patent US9845322B2 (Hoffmann-La Roche Inc., priority 2016, dated 2017)
